Columns and labels:
[1] = system: Tnfsf10 expression in astrocytes; assay: Tnfsf10 mRNA (qPCR) in stimulated primary mouse astrocytes; format: cell-based
Protocol: Isolation, culture, and stimulation of primary mouse astrocytes. Primary murine astrocytes were isolated from neonatal brains as previously described. Briefly, wild-type mouse pups aged 1-3 days were cryoanesthetized and decapitated. Whole brains were extracted, and 2-3 brains pooled per culture. After centrifugation for 5 min at 500×g, tissues were resuspended in 5 mL pre-warmed 0.25% Trypsin-EDTA (Thermo Fisher Scientific, 25200-072) and incubated at 37° C. for 10 min, followed by addition of culture medium to stop the dissociation reaction, and mechanical disaggregation by strong pipetting. The suspension was then filtered through a 70 μm nylon strainer and centrifuged 5 min at 500×g. Finally, the suspension was seeded onto T75 flasks (Falcon, 353136) that were coated at room temperature for 10 min with poly-L-lysine (Sigma-Aldrich, P4707). Mixed glial cultures were grown for at least 10 days prior to enrichment of astrocytes per the following method. […]
For quantitative analysis of gene transcription from cultured cells cellular RNA was extracted by use of RNeasy Kit (Qiagen, 74004). […] Quantitative measurement of gene expression was performed by qPCR using Taqman Fast Universal PCR Master Mix (Life Technologies, 4367846), MicroAmp Optical 384 well plates (Thermo Fisher Scientific, 43-098-49) and a ViiA 7 Real-Time PCR System (Applied Biosciences). […]

[2] = system: STAT3; details: 2 μM in dimethyl sulfoxide; reported in ref [40]; cited from earlier work

O=C(Nc1ccc([N+](=O)[O-])cc1Cl)c1cc(Cl)ccc1O [BAY2353, Niclosamide]
TCM-induced expression of Tnfsf10 transcripts upon STAT inhibition ([1]; GL261 TCM-stimulated astrocytes, inhibitor 2 μM, vs vehicle): fully abrogated
effectiveness and cytotoxicity at the concentration used [2]: effective but not cytotoxic

B1: Recombinant murine IL-11: recombinant murine IL-11 used to stimulate astrocytes at 50 ng/ml (protein, UniProt P47873 22-199, looked up)
Interleukin-11: PGPPAGSPRVSSDPRADLDSAVLLTRSLLADTRQLAAQMRDKFPADGDHSLDSLPTLAMSAGTLGSLQLPGVLTRLRVDLMSYLRHVQWLRRAGGPSLKTLEPELGALQARLERLLRRLQLLMSRLALPQAAPDQPVIPLGPPASAWGSIRAAHAILGGLHLTLDWAVRGLLLLKTRL
Tnfsf10 expression upon recombinant murine IL-11 alone ([1]; astrocytes, 50 ng/ml, levels comparable to GL261 TCM, vs control medium): sufficient to induce Tnfsf10 expression

From patent publication US20260242824A1, “ONCOLYTIC VIRUSES TO TREAT BRAIN CANCER” (priority 2023, published 2026)
